Test results published in patent publication US10722526B2, “Pharmaceutical compositions for radioprotection or radiomitigation and methods for using them” (KOREA INSTITUTE OF RADIOLOGICAL & MEDICAL SCIENCES, priority 2015, dated 2020).

Key:
[1] = system: lung of a mouse model, 90 Gy irradiation; experiment: Radiation-induced lung tissue damage, H&E staining (Example 1); type: in vivo; conditions: 60 mg/kg i.p. 1 hour before 90 Gy irradiation; 2 weeks after irradiation; compared to untreated group (IR)
Protocol: (§1) Tissue from a mouse was fixed in 10% neutral formalin for one day, and paraffin sections were prepared. The paraffin sections were then reacted for 5 minutes in each of xylene, and 95%, 90%, and 70% ethanol solutions in that order to deparaffinize the paraffin around the tissue. The tissue was then put into hematoxylin for 1 minute to stain the nucleus and washed with running water for 10 minutes, followed by dipping in eosin for 30 seconds to stain the cytoplasm. The tissue was then dipped in 50%, 70%, 90%, and 95% ethanol, and xylene in that order, and a drop of a mounting solution was applied thereto. The tissue was covered with a cover slide and observed with a microscope (Carl Zeiss Vision).
A mouse was exposed to 90 Gy radiation on the thorax in a size of 3 mm. Lung tissue from the mouse model was fixed in 10% neutral formalin, and paraffin sections were prepared. Using the hematoxylin and eosin staining method, inflammatory reactions and fibrosis of the tissue were observed. The cell nuclei were stained in blue and the cytoplasm was stained in pink. One hour before the irradiation, the mouse model received an intraperitoneal injection of 60 mg/kg 2-methoxyestradiol. Two weeks after the irradiation, inflammatory reactions and fibrosis were observed using H&E staining at the site of tissue damage.

[2] = system: skin tissue, C57BL/6 mouse, 20 Gy on the thorax; experiment: Radiation-induced in vivo skin damage, infiltration of inflammatory cells (Example 3); conditions: 2 weeks after irradiation, compared to IR
Protocol: as §1
To observe whether inflammatory responses and fibrosis of skin occur during tissue damage induced after radiotherapy, a C57BL/6 mouse was exposed to 20 Gy radiation on the thorax in a size of 7 mm. Skin was extracted from the mouse, and infiltration of inflammatory cells in the skin tissue was observed. The group pre-treated with 2-methoxyestradiol (IR+pre-treatment2Me) received an intraperitoneal injection in an amount of 60 mg/kg 1 hour before the irradiation, and that post-treated with 2-methoxyestradiol (IR+post-treatment2Me) received an intraperitoneal injection in an amount of 60 mg/kg 24 hours after the irradiation.

[3] = system: Human pulmonary artery endothelial cells (HPAEC); experiment: Immunofluorescence staining of irradiated HPAECs (Example 4); type: cell-based; conditions: 10 ng/mL, 12 hours before 10 Gy radiation
Protocol: (§2) Human pulmonary artery endothelial cells (HPAEC) bought from Promocell were cultured in a culture chamber at a temperature of 37° C. under a 5% CO2 condition using a medium including various growth factors necessary for growth of the vascular endothelial cell.
(§3) HPAECs were plated in 3.5 cm, 6 cm, and 10 cm culture dishes and cultured in a CO2 incubator at 37° C. so that the cells were 70% to 80% confluent. 2-Methoxyestradiol was selectively pre-treated according to the test groups. 10 Gy gamma rays (^137Cs) (Atomic Energy of Canada, LTd., Canada) were radiated at a dose of 3.81 Gy/min.
HPAECs were cultured on the cover slide, selectively pre-treated with 2-methoxyestradiolin according to test groups, and irradiated. HPAECs were then fixed in 10% neutral formalin for one day, and washed with phosphate buffered saline (PBS) before staining. After blocking with 2% bovine serum albumin (dissolved inPBS) before the first antibody reaction, VE-cadherin, hypoxia-inducible factor 1-alpha (HIF-1α), SMAD, p-SMAD2/3, and α-SMA antibodies, diluted at 1:100, were reacted at 4° C. for 16 hours. After washing with PBS, the second antibodies having fluorescent stains attached were diluted at 1:500 and reacted at 25° C. for 1 hour. The nuclei were stained with a fluorescent stain 4′,6-diamidino-2-phenylindole (DAPI). After washing with PBS, a drop of glycerol was applied to attach the stained cells to the glass slide.
Human pulmonary artery endothelial cells which received 10 Gy radiation were fixed in 10% neutral formalin, and reacted with phalloidin, CA-9, and VE-cadherin antibodies. Then, fluorescent-labeled secondary immunoglobulins were used to stain CA9, phalloidin, and VE-cadherin in red, green, and white, respectively. The cell nuclei were stained in blue using DAPI. The group received 10 Gy radiation 12 hours after treating HPAECs with 10 ng/mL 2-methoxyestradiol.

[4] = system: pulmonary artery endothelium, mouse model with lung cancer (mutated p53 and ras), 16 Gy; experiment: Fibrosis of vascular endothelium after irradiation in mouse model with lung cancer (Example 7); type: in vivo; conditions: 150 mg/kg i.p. 1 hour before 16 Gy irradiation, compared to IR
Protocol: as §1, with “solutions in order to” for “solutions in that order to”, “around the tissue for staining. The tissue” for “around the tissue. The tissue”
(§4) Tissue from a mouse was fixed in 10% neutral formalin for one day, and paraffin sections were prepared. The paraffin sections were then reacted for 5 minutes in each of xylene, and 95%, 90%, and 70% ethanol solutions in that order to deparaffinize the paraffin around the tissue for staining. For antigen activation, the tissue was soaked in a 0.1 M citric acid solution (pH 6.0) and boiled.
The tissue was then reacted in Bouin's solution for 1 minute, Weigert's hematoxylin for 10 minutes, phosphotunstic/phosphomolydic acid for 10 minutes, aniline blue for 5 minutes, and 1% acetate for 1 minute in that order. […]

[5] = system: blood vessels of the skin, C57BL/6 mouse, 20 Gy on the thorax; experiment: Radiation-induced in vivo vascular injury of skin (Example 2); conditions: compared to untreated group (IR)
Protocol: Tissue from a mouse was fixed in 10% neutral formalin for one day, and paraffin sections were prepared. The paraffin sections were then reacted for 5 minutes in each of xylene, and 95%, 90%, and 70% ethanol solutions in that order to deparaffinize the paraffin around the tissue. For antigen activation, the tissue was immersed in 0.1 M citrate (pH 6.0) and brought to a boil for 30 minutes, followed by reacting with 3% hydrogen peroxide for 15 minutes. Meanwhile, the tissue was then reacted in phosphate based saline buffer (PBS, 0.1% triton x-100 included) including CD31 (abcam, 1:100 dilution) at 4° C. for 16 hours. After washing with PBS, secondary antibodies having biotin conjugated were diluted at 1:200 and incubated at room temperature for 30 minutes. Avidin biotin complex (ABC) was applied and incubated at room temperature for 30 minutes, and 3,3′-DAB(3,3′-diaminobenzidine) was added for color detection. Hematoxylin was used for counterstaining. The tissue was then dipped in 50%, 70%, 90%, and 95% ethanol, and xylene in that order, and a drop of a mounting solution was applied thereto. The tissue was covered with a cover slide and observed with a microscope (Carl Zeiss Vision).
Skin was extracted from the mouse, and vascular changes inside the skin were observed. […]

[6] = system: p-SMAD, Smad 2/3, α-SMA in HPAECs; experiment: Western blot of fibrosis-related proteins in irradiated HPAECs (Example 6); type: cell-based, human; conditions: 12 hours before 10 Gy radiation
Protocol: as §2, §3
After the cultured cells were irradiated, specimens in which the cells were dissolved in a solution of 150 mM sodium chloride, 40 mM Tris-Cl (pH 8.0), 0.1% NP-40 were prepared to observe intracellular proteins. Sodium dodecyl sulfate polyacrylamide gel electrophoresis (SDS-PAGE) was performed on the specimens, followed by Western blot analysis. The proteins separated by electrophoresis were transferred to a nitrocellulose membrane, and the amount of protein expression was analyzed using the immunoblotting method.
In order to observe changes in the expression amount of the proteins related to HPAEC pulmonary fibrosis according to the concentrations of 2-methoxyestradiol (0.5 μM and 1 μM), the cultured HPAECs were pre-treated with 0.5 μM or 1 μM 2-methoxyestradiol and received 10 Gy radiation 12 hours later. Western blot analysis was then performed using p-SMAD, Smad 2/3, and alpha smooth muscle actin (α-SMA) antibodies. To measure a quantitative amount of the protein, Western blot was performed using β-actin antibodies.

[7] = system: pulmonary artery endothelium, C57BL/6 mouse, 16 Gy on the lung; experiment: Radiation-induced pulmonary fibrosis in mouse, trichrome staining of collagen (Example 5); type: in vivo; conditions: 150 mg/kg i.p. 1 hour before 16 Gy irradiation of the lung; compared to IR; **: P<0.01
Protocol: as §4
The tissue was then reacted in Bouin's solution for 1 minute, Weigert's hematoxylin for 10 minutes, phosphotunstic/phosphomolydic acid for 10 minutes, aniline blue for 5 minutes, and 1% acetate for 1 minute in that order. After dehydration, the tissue was sealed with a cover glass, and observed with a confocal microscope.
To observe whether the symptoms of pulmonary fibrosis induced after radiotherapy include pulmonary fibrosis of vascular endothelial cells, a C57BL/6 mouse was exposed to 16 Gy radiation on the lung. The lung was extracted from the mouse, and collagen, a protein appearing on the cross-section of aorta during the fibrosis of pulmonary artery endothelial cell, was detected by trichrome staining. The group treated with 2-methoxyestradiol was intraperitoneally injected in an amount of 150 mg/kg 1 hour before irradiation. […]

[8] = post-treated: 60 mg/kg i.p. 24 hours after 20 Gy irradiation
[9] = pre-treated: 60 mg/kg i.p. 1 hour before 20 Gy irradiation
[10] = 1 μM, decrease in particular at 1 μM

COc1cc2c(cc1O)CC[C@@H]1[C@@H]2CC[C@]2(C)[C@@H](O)CC[C@@H]12 [2-methoxyestradiol]
cell infiltration (inflammatory cells) in lung tissue, H&E staining [1]: significantly reduced | fibrosis around blood vessels in lung tissue, H&E staining [1]: significantly reduced | number of infiltrated inflammatory cells inside the skin tissue [2, 8]: significantly reduced | number of infiltrated inflammatory cells inside the skin tissue [2, 9]: significantly reduced | CA-9 staining, immunofluorescence [3]: significant decrease | VE-cadherin (white around the cell membrane), immunofluorescence [3]: significant increase | phalloidin staining, immunofluorescence [3]: significant decrease | collagen stained in blue around the vascular endothelium, trichrome staining [4]: significant decrease | skin vascular injury [5, 8]: significant reduction | skin vascular injury [5, 9]: significant reduction | Smad 2/3 expression, Western blot ([6]; 0.5 μM): relative decrease | p-SMAD expression, Western blot ([6]; 0.5 μM): relative decrease | α-SMA expression, Western blot ([6]; 0.5 μM): relative decrease | Smad 2/3 expression, Western blot [6, 10]: relative decrease | p-SMAD expression, Western blot [6, 10]: relative decrease | α-SMA expression, Western blot [6, 10]: relative decrease | collagen stained in blue in the aortic wall, trichrome staining [7]: significant decrease
